Assay results: PubChem BioAssay AID1845197 (Molecular Pharmacology Branch, DTP, NCI, 2023)

Test system: 349418-098-R tumor spheroid viability
Test: Anticancer human tumor 349418-098-R patient-derived lung adenocarcinoma cell line growth inhibition
Conditions: spheroids with HUVEC and MSC; for IC50: curve of first compound; for viability, T/C: stronger effect = lower value
Source text: Multicellular complex tumor spheroid response to DNA repair inhibitors in combination with DNA-damaging drugs
This study explores the anticancer activities of DNA-damaging drugs and inhibitors of DNA damage repair, both as single agents and in combinations. Complex tumor spheroids comprised of malignant cells, endothelial cells and mesenchymal stem cells served as an in vitro model for human solid tumors. This model system incorporates physiologically relevant features and patient-derived or established malignant cell lines with clinically relevant genetic alterations from many tumor types. Twenty-six patient-derived or established malignant cell lines were evaluated representing sarcoma, melanoma, small cell lung cancer (SCLC), non-small cell lung cancer (NSCLC), as well as bladder, ovarian and pancreatic cancers. The concentration ranges selected for each drug and investigational agent were based upon clinically achievable concentrations if the clinical Cmax of the agent was known.
Compounds. The drugs and compounds olaparib (NSC753686), talazoparib (NSC767125), berzosertib (NSC777718), elimusertib (NSC800525), nedisertib (NSC802822), VX-984 (NSC792969), AZD-1390 (NSC803789), temozolomide (NSC362856), topotecan (NSC609699), trabectedin (NSC813783), staurosporine (NSC755774), and gemcitabine (NSC613327) were obtained from the National Cancer Institute (NCI) Developmental Therapeutics Program Chemical Repository. The FDA-approved anticancer drug set is available from the Developmental Therapeutics Program at https://dtp.cancer.gov/organization/dscb/obtaining/available_plates.htm. […] The stock solutions were prepared in dimethyl sulfoxide (DMSO, Sigma-Aldrich, St. Louis, MO, cat. D2650) at 400-fold the tested concentration and stored at -70 degrees C. Prior to their use, the stock solutions were diluted in fresh medium and the final DMSO concentration in the assay was 0.25% (v/v). All drugs and investigational agents were tested over a range starting from a high concentration at or near the clinical Cmax and decreasing in half-log increments. If the clinical Cmax for an agent had not been determined, the highest concentration tested was 10 microM.
Cell Lines. The patient-derived cancer cell (PDC) lines: 156681-154-R-J1-PDC, 283228-195-R-J1-PDC, 287954-098-R-J1-PDC, 292921-168-R-J2-PDC, 349418-098-R-PDC, 425362-245-T-J1-PDC, 556581-035-R-J1-PDC, and BL0293-F563-PDC were received from the NCI Patient-Derived Models Repository (PDMR, https://pdmr.cancer.gov). The established cell lines HS-SY-2 (RRID:CVCL_8719), MPNST, and SYO-1 (RRID:CVCL_7146) were obtained from the Sloan Kettering Institute. The alveolar soft parts sarcoma cell line ASPS-1 (RRID:CVCL_S738) was established at the NCI and grown from internal seed stocks. The following established cell lines were purchased from the American Type Culture Collection (ATCC, Manassas, VA): G-401 (ATCC, cat. CRL-1441, RRID:CVCL_0270), SW982 (ATCC, cat. HTB-93, RRID:CVCL_1734), VA-ES-BJ (ATCC, cat. CRL-2138, RRID:CVCL_1785), NCI-H719 (ATCC, cat. CRL-5837, RRID:CVCL_1582), NCI-H196 (ATCC, cat. CRL-5823, RRID:CVCL_1509), NCI-H841 (ATCC, cat. CRL-5845, RRID:CVCL_1595), NCI-H1618 (ATCC, cat. CRL-5879, RRID:CVCL_1480), NCI-H1876 (ATCC, cat. CRL-5902, RRID:CVCL_1503), DMS 114 (ATCC, cat. CRL-2066; RRID:CVCL_1174), NCI-H211 (ATCC, cat. CRL-5824; RRID:CVCL_1529), and SW 1271 (ATCC, cat. CRL-2177, RRID:CVCL_1716). The small cell lung cancer cell line COR-L88 was purchased from Sigma-Aldrich (cat. 92031917-1VL, RRID:CVCL_1141). The non-small cell lung cancer cell lines NCI-H226 (RRID:CVCL_1544) and NCI-H322M (RRID:CVCL_1557) were established at the NCI and grown from internal seed stocks. Pooled donor human umbilical vein endothelial cells (HUVEC, Lonza, cat. CC-2519) and human mesenchymal stem cells (hMSC, Lonza, cat. PT-2501) were purchased from Lonza (Walkersville, MD).
Cell Culture. All cells were maintained in an incubator at 37 degrees C and 5% CO2 with 95% humidity. […]
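Note: spheroids exposed to compound for 7 days before measurement.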
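Throughout, for viability, T/C: percent of vehicle control viability with 100% = DMSO-treated spheroids.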

Question: `Cc1cc(C)c(CNC(=O)c2cc(-c3ccc(CN4CCOCC4)cc3)cc3c2cnn3C2CCCC2)c(=O)[nH]1` + Cn1nnc2c(C(N)=O)ncn2c1=O was tested. Which IC50 (second compound 1 µM) did it give?
Answer: The IC50 was 6.56 µM.

Question: And the IC50 (second compound 3.16 µM)?
Answer: Its IC50 is 7.44 µM.

Question: What about the IC50 (second compound 10 µM) of the same compound?
Answer: The IC50 was 7.58 µM.

Question: What about the IC50 (second compound 31.6 µM) of the same compound?
Answer: Its IC50 is 6.24 µM.

Question: What about the IC50 (second compound 100 µM) of the same compound?
Answer: The IC50 was 6.24 µM.

Question: And the viability, T/C (second compound 1 µM, first compound 0.0316 µM)?
Answer: The viability, T/C was 98%.

Question: What about the viability, T/C (second compound 1 µM, first compound 0.1 µM) of the same compound?
Answer: The viability, T/C was 97.6%.

Question: And the viability, T/C (second compound 1 µM, first compound 0.316 µM)?
Answer: The viability, T/C was 103%.

Question: What about the viability, T/C (second compound 1 µM, first compound 1 µM) of the same compound?
Answer: Its viability, T/C is 97.1%.

Question: And the viability, T/C (second compound 1 µM, first compound 3.16 µM)?
Answer: The viability, T/C was 91.6%.

Question: And the viability, T/C (second compound 1 µM, first compound 10 µM)?
Answer: Its viability, T/C is 25.8%.

Question: And the viability, T/C (second compound 3.16 µM, first compound 0.0316 µM)?
Answer: Its viability, T/C is 104%.

Question: And the viability, T/C (second compound 3.16 µM, first compound 0.1 µM)?
Answer: The viability, T/C was 102%.

Question: And the viability, T/C (second compound 3.16 µM, first compound 0.316 µM)?
Answer: Its viability, T/C is 103%.

Question: What about the viability, T/C (second compound 3.16 µM, first compound 1 µM) of the same compound?
Answer: The viability, T/C was 104%.

Question: What about the viability, T/C (second compound 3.16 µM, first compound 3.16 µM) of the same compound?
Answer: The viability, T/C was 92.6%.

Question: What about the viability, T/C (second compound 3.16 µM, first compound 10 µM) of the same compound?
Answer: Its viability, T/C is 35.2%.

Question: What about the viability, T/C (second compound 10 µM, first compound 0.0316 µM) of the same compound?
Answer: Its viability, T/C is 97.4%.

Question: What about the viability, T/C (second compound 10 µM, first compound 0.1 µM) of the same compound?
Answer: Its viability, T/C is 106%.

Question: What about the viability, T/C (second compound 10 µM, first compound 0.316 µM) of the same compound?
Answer: Its viability, T/C is 98.7%.

Question: What about the viability, T/C (second compound 10 µM, first compound 1 µM) of the same compound?
Answer: The viability, T/C was 102%.

Question: And the viability, T/C (second compound 10 µM, first compound 3.16 µM)?
Answer: The viability, T/C was 94.3%.

Question: What about the viability, T/C (second compound 10 µM, first compound 10 µM) of the same compound?
Answer: The viability, T/C was 35.8%.

Question: What about the viability, T/C (second compound 31.6 µM, first compound 0.0316 µM) of the same compound?
Answer: The viability, T/C was 99.2%.

Question: And the viability, T/C (second compound 31.6 µM, first compound 0.1 µM)?
Answer: The viability, T/C was 104%.

Question: What about the viability, T/C (second compound 31.6 µM, first compound 0.316 µM) of the same compound?
Answer: Its viability, T/C is 99.2%.

Question: What about the viability, T/C (second compound 31.6 µM, first compound 1 µM) of the same compound?
Answer: The viability, T/C was 105%.

Question: And the viability, T/C (second compound 31.6 µM, first compound 3.16 µM)?
Answer: The viability, T/C was 91.6%.

Question: What about the viability, T/C (second compound 31.6 µM, first compound 10 µM) of the same compound?
Answer: Its viability, T/C is 20.5%.

Question: What about the viability, T/C (second compound 100 µM, first compound 0.0316 µM) of the same compound?
Answer: Its viability, T/C is 104%.

Question: What about the viability, T/C (second compound 100 µM, first compound 0.1 µM) of the same compound?
Answer: Its viability, T/C is 105%.

Question: What about the viability, T/C (second compound 100 µM, first compound 0.316 µM) of the same compound?
Answer: Its viability, T/C is 103%.

Question: What about the viability, T/C (second compound 100 µM, first compound 1 µM) of the same compound?
Answer: The viability, T/C was 97.2%.

Question: And the viability, T/C (second compound 100 µM, first compound 3.16 µM)?
Answer: Its viability, T/C is 91.6%.

Question: What about the viability, T/C (second compound 100 µM, first compound 10 µM) of the same compound?
Answer: The viability, T/C was 21.5%.
